Converted amounts (≈) assume the structure as drawn. Numbered stars: 1 amine (or outer) side, 2 acyl side, 3 side chain; on linkers, the order of the positions; unused ones are H or OH. Peptide text beside a SMILES is read from it. * marks the point of attachment. C20 diacid = O=C(O)CCCCCCCCCCCCCCCCCCC(=O)*; γGlu = O=C(O)[C@H](CCC(=O)[*:2])N[*:1]
Assay: Assay (IV) determination of solubility
Assay type: physicochemical
Procedure: Assay (IV)—Determination of Solubility
The mimylin peptide was dissolved in water at ˜500 nmol/ml and mixed 1:1 with a series of buffers (100 mM glycylglycine pH 3.0, 100 mM glycylglycine pH 4.0, 100 mM glycylglycine pH 5.0, 100 mM bistrispropane pH 6.0, 100 mM bistrispropane pH 6.5, 100 mM bistrispropane pH 7.0, 100 mM bistrispropane pH 7.5, 100 mM bistrispropane pH 8.0).

| Solubility (pH 3.0) | Solubility (pH 4.0) | solubility at 18 h (pH 5.0) [µM] | Solubility (pH 6.0) | Solubility (pH 6.5) | Solubility (pH 7.0) | Solubility (pH 7.5) | Solubility (pH 8.0) | solubility at 18 h (pH 4.0) [µM] | Solubility (pH 5.0) | solubility at 18 h (pH 6.0) [µM] | solubility at 18 h (pH 6.5) [µM] | solubility at 18 h (pH 7.0) [µM] | solubility at 18 h (pH 7.5) [µM] | solubility at 18 h (pH 8.0) [µM] | Compound |
| --- | --- | --- | --- | --- | --- | --- | --- | --- | --- | --- | --- | --- | --- | --- | --- |
| ≧200 μM | ≧200 μM | 61 (≈ 237 µg/mL) | ≧200 μM | ≧200 μM | ≧200 μM | ≧200 μM | ≧200 μM |  |  |  |  |  |  |  | CC(C)C[C@H](NC(=O)CNC(=O)[C@H](CO)NC(=O)[C@H](C)NC(=O)CC[C@H](NC(=O)CCCCCCCCCCCCCCCCCCC(=O)O)C(=O)O)C(=O)N[C@@H](CO)C(=O)N[C@H](C(=O)N[C@@H](C)C(=O)N[C@H](C(=O)N[C@@H](CC(C)C)C(=O)NCC(=O)N[C@@H](CCCNC(=N)N)C(=O)N[C@@H](CC(C)C)C(=O)N[C@@H](CO)C(=O)N[C@@H](CCC(N)=O)C(=O)N[C@@H](CCC(=O)O)C(=O)N[C@@H](CC(C)C)C(=O)N[C@@H](Cc1cnc[nH]1)C(=O)N[C@@H](CCC(=O)O)C(=O)N[C@@H](CC(C)C)C(=O)N[C@@H](CCC(N)=O)C(=O)N[C@H](C(=O)N[C@@H](Cc1ccc(O)cc1)C(=O)N1CCC[C@H]1C(=O)N[C@@H](CCCNC(=N)N)C(=O)N[C@H](C(=O)N[C@@H](CCC(=O)O)C(=O)N[C@H](C(=O)NCC(=O)N[C@@H](CO)C(=O)NCC(=O)N[C@H](C(=O)N[C@@H](Cc1ccc(O)cc1)C(N)=O)[C@@H](C)O)[C@@H](C)O)[C@@H](C)O)[C@@H](C)O)[C@@H](C)O)[C@@H](C)O [compound 124, [N-terminal(C20 diacid-gGlu), des1, 4G, 9T, 15Q, 21Q, 23Y, 30S, 31G, 32T, 33Y]mimylin] ({C20 diacid-γGlu}-ASGLSTATLGRLSQELHELQTYPRTETGSGTY-NH2) |
| ≧200 μM |  |  | ≧200 μM | ≧200 μM | ≧200 μM | ≧200 μM | ≧200 μM | 28 (≈ 109 µg/mL) | ≧200 μM |  |  |  |  |  | CC(C)C[C@H](NC(=O)CNC(=O)[C@H](CO)NC(=O)[C@H](C)NC(=O)CC[C@H](NC(=O)CCCCCCCCCCCCCCCCCCC(=O)O)C(=O)O)C(=O)N[C@@H](CO)C(=O)N[C@H](C(=O)N[C@@H](C)C(=O)N[C@H](C(=O)N[C@@H](CC(C)C)C(=O)NCC(=O)N[C@@H](CCCNC(=N)N)C(=O)N[C@@H](CC(C)C)C(=O)N[C@@H](CO)C(=O)N[C@@H](CCC(N)=O)C(=O)N[C@@H](CCC(=O)O)C(=O)N[C@@H](CC(C)C)C(=O)N[C@@H](Cc1cnc[nH]1)C(=O)N[C@@H](CCC(=O)O)C(=O)N[C@@H](CC(C)C)C(=O)N[C@@H](CCC(N)=O)C(=O)N[C@H](C(=O)N[C@@H](Cc1ccc(O)cc1)C(=O)N1CCC[C@H]1C(=O)N1CCC[C@H]1C(=O)N[C@H](C(=O)N[C@@H](CCC(=O)O)C(=O)N[C@H](C(=O)NCC(=O)N[C@@H](CO)C(=O)N[C@@H](CCC(N)=O)C(=O)N[C@H](C(=O)N[C@@H](Cc1ccc(O)cc1)C(N)=O)[C@@H](C)O)[C@@H](C)O)[C@@H](C)O)[C@@H](C)O)C(C)C)[C@@H](C)O [compound 125, [N-terminal(C20 diacid-gGlu), des1, 4G, 9V, 15Q, 21Q, 23Y, 25P, 30S, 31Q, 32T, 33Y]mimylin] ({C20 diacid-γGlu}-ASGLSTAVLGRLSQELHELQTYPPTETGSQTY-NH2) |
| ≧200 μM |  |  |  | ≧200 μM | ≧200 μM | ≧200 μM | ≧200 μM |  |  | 161 (≈ 642 µg/mL) |  |  |  |  | CC(C)C[C@H](NC(=O)CNC(=O)[C@H](CO)NC(=O)[C@H](C)NC(=O)CC[C@H](NC(=O)CCCCCCCCCCCCCCCCCCC(=O)O)C(=O)O)C(=O)N[C@@H](CO)C(=O)N[C@H](C(=O)N[C@@H](CC(C)C)C(=O)N[C@H](C(=O)N[C@@H](CC(C)C)C(=O)NCC(=O)N[C@@H](CCCNC(=N)N)C(=O)N[C@@H](CC(C)C)C(=O)N[C@@H](CO)C(=O)N[C@@H](CCC(N)=O)C(=O)N[C@@H](CCC(=O)O)C(=O)N[C@@H](CC(C)C)C(=O)N[C@@H](Cc1cnc[nH]1)C(=O)N[C@@H](CCC(=O)O)C(=O)N[C@@H](CC(C)C)C(=O)N[C@@H](CCC(N)=O)C(=O)N[C@H](C(=O)N[C@@H](Cc1ccc(O)cc1)C(=O)N1CCC[C@H]1C(=O)N[C@@H](CCCNC(=N)N)C(=O)N[C@H](C(=O)N[C@@H](CCC(=O)O)C(=O)N[C@H](C(=O)NCC(=O)N[C@@H](CO)C(=O)N[C@@H](CCC(N)=O)C(=O)N[C@H](C(=O)N[C@@H](Cc1ccc(O)cc1)C(N)=O)[C@@H](C)O)[C@@H](C)O)[C@@H](C)O)[C@@H](C)O)C(C)C)[C@@H](C)O [compound 126, [N-terminal(C20 diacid-gGlu), des1, 4G, 8L, 9V, 15Q, 21Q, 23Y, 30S, 31Q, 32T, 33Y]mimylin] ({C20 diacid-γGlu}-ASGLSTLVLGRLSQELHELQTYPRTETGSQTY-NH2) |
| ≧200 μM |  |  | ≧200 μM | ≧200 μM | ≧200 μM | ≧200 μM | ≧200 μM | 31 (≈ 124 µg/mL) |  |  |  |  |  |  | CC(C)C[C@H](NC(=O)CC[C@H](NC(=O)CCCCCCCCCCCCCCCCCCC(=O)O)C(=O)O)C(=O)N[C@@H](CO)C(=O)NCC(=O)N[C@@H](CC(C)C)C(=O)N[C@@H](CO)C(=O)N[C@H](C(=O)N[C@@H](C)C(=O)N[C@H](C(=O)N[C@@H](CC(C)C)C(=O)NCC(=O)N[C@@H](CCCNC(=N)N)C(=O)N[C@@H](CC(C)C)C(=O)N[C@@H](CO)C(=O)N[C@@H](CCC(N)=O)C(=O)N[C@@H](CCC(=O)O)C(=O)N[C@@H](CC(C)C)C(=O)N[C@@H](Cc1cnc[nH]1)C(=O)N[C@@H](CCC(=O)O)C(=O)N[C@@H](CC(C)C)C(=O)N[C@@H](CCC(N)=O)C(=O)N[C@H](C(=O)N[C@@H](Cc1ccc(O)cc1)C(=O)N1CCC[C@H]1C(=O)N[C@@H](CCCNC(=N)N)C(=O)N[C@H](C(=O)N[C@@H](CCC(=O)O)C(=O)N[C@H](C(=O)NCC(=O)N[C@@H](CO)C(=O)N[C@@H](CCC(N)=O)C(=O)N[C@H](C(=O)N[C@@H](Cc1ccc(O)cc1)C(N)=O)[C@@H](C)O)[C@@H](C)O)[C@@H](C)O)[C@@H](C)O)C(C)C)[C@@H](C)O [compound 127, [N-terminal(C20 diacid-gGlu), des1, 2L, 4G, 9V, 15Q, 21Q, 23Y, 30S, 31Q, 32T, 33Y]mimylin] ({C20 diacid-γGlu}-LSGLSTAVLGRLSQELHELQTYPRTETGSQTY-NH2) |
| ≧200 μM | ≧200 μM | 1 (≈ 4.02 µg/mL) |  |  |  |  |  |  |  | 1 (≈ 4.02 µg/mL) | 1 (≈ 4.02 µg/mL) | 1 (≈ 4.02 µg/mL) | 52 (≈ 209 µg/mL) | 185 (≈ 743 µg/mL) | CC(C)C[C@H](NC(=O)CNC(=O)[C@H](CO)NC(=O)[C@H](CC(C)C)NC(=O)[C@H](CCC(=O)O)NC(=O)CC[C@H](NC(=O)CCCCCCCCCCCCCCCCCCC(=O)O)C(=O)O)C(=O)N[C@@H](CO)C(=O)N[C@H](C(=O)N[C@@H](CC(C)C)C(=O)N[C@H](C(=O)N[C@@H](CC(C)C)C(=O)NCC(=O)N[C@@H](CCCNC(=N)N)C(=O)N[C@@H](CC(C)C)C(=O)N[C@@H](CO)C(=O)N[C@@H](CCC(N)=O)C(=O)N[C@@H](CCC(=O)O)C(=O)N[C@@H](CC(C)C)C(=O)N[C@@H](Cc1cnc[nH]1)C(=O)N[C@@H](CCC(=O)O)C(=O)N[C@@H](CC(C)C)C(=O)N[C@@H](CCC(N)=O)C(=O)N[C@H](C(=O)N[C@@H](Cc1ccc(O)cc1)C(=O)N1CCC[C@H]1C(=O)N[C@@H](CCCNC(=N)N)C(=O)N[C@H](C(=O)NCC(=O)N[C@H](C(=O)NCC(=O)N[C@@H](CO)C(=O)NCC(=O)N[C@H](C(=O)N[C@@H](Cc1ccc(O)cc1)C(N)=O)[C@@H](C)O)[C@@H](C)O)[C@@H](C)O)[C@@H](C)O)C(C)C)[C@@H](C)O [compound 129, [N-terminal(C20 diacid-gGlu), 2L, 4G, 8L, 9V, 15Q, 21Q, 23Y, 27G, 30S, 31G, 32T, 33Y]mimylin] ({C20 diacid-γGlu}-ELSGLSTLVLGRLSQELHELQTYPRTGTGSGTY-NH2) |
| ≧200 μM |  | 9 (≈ 38.6 µg/mL) | ≧200 μM | ≧200 μM | ≧200 μM | ≧200 μM | ≧200 μM | 174 (≈ 746 µg/mL) |  |  |  |  |  |  | CC(C)C[C@H](NC(=O)CNC(=O)[C@H](CO)NC(=O)[C@H](C)NC(=O)CC[C@H](NC(=O)CCCCCCCCCCCCCCCCCCC(=O)O)C(=O)O)C(=O)N[C@@H](CO)C(=O)N[C@H](C(=O)N[C@@H](C)C(=O)N[C@H](C(=O)N[C@@H](CC(C)C)C(=O)NCC(=O)N[C@@H](CCCNC(=N)N)C(=O)N[C@@H](CC(C)C)C(=O)N[C@@H](CO)C(=O)N[C@@H](CCC(N)=O)C(=O)N[C@@H](CCC(=O)O)C(=O)N[C@@H](CC(C)C)C(=O)N[C@@H](Cc1cnc[nH]1)C(=O)N[C@@H](CCC(=O)O)C(=O)N[C@@H](CC(C)C)C(=O)N[C@@H](CCC(N)=O)C(=O)N[C@H](C(=O)N[C@@H](CC(C)C)C(=O)N[C@@H](CCC(N)=O)C(=O)N[C@H](C(=O)N[C@@H](Cc1ccc(O)cc1)C(=O)N1CCC[C@H]1C(=O)N[C@@H](CCCNC(=N)N)C(=O)N[C@H](C(=O)N[C@@H](CCC(=O)O)C(=O)N[C@H](C(=O)NCC(=O)N[C@@H](CO)C(=O)N[C@@H](CCC(N)=O)C(=O)N[C@H](C(=O)N[C@@H](Cc1ccc(O)cc1)C(N)=O)[C@@H](C)O)[C@@H](C)O)[C@@H](C)O)[C@@H](C)O)[C@@H](C)O)C(C)C)[C@@H](C)O [compound 130, [N-terminal(C20 diacid-gGlu), des1, 4G, 9V, 15Q, 21Q, 23aQ, 23bT, 23cY, 30S, 31Q, 32T, 33Y]mimylin] ({C20 diacid-γGlu}-ASGLSTAVLGRLSQELHELQTLQTYPRTETGSQTY-NH2) |
